The source of these data is US4510136A (priority 1983, dated 1985).

The structures appear in SMILES notation.

One data set deals with Rhizoctonia solani. As to the kind of experiment: Rice sheath blight control on sprayed rice seedlings (Example 87). The settings on record: Rhizoctonia solani, 168 h, 100 ppm spray, day before inoculation. It counts as in vivo. Put shortly: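 Rice seedlings were sprayed to run-off with 100 ppm compound suspended in water with 6% acetone and 250 ppm TREM 014 surfactant. They were inoculated next day with bran plus R. solani mycelium. Sheath blight was rated after 7 days in a growth room.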

Another data set concerns Cercospora arachidicola. As to the kind of experiment: Peanut early leafspot control on sprayed peanut seedlings (Example 84). It counts as in vivo. The settings on record: Mycosphaerella arachidis, 360 h, 100 ppm spray, day before inoculation; read-out: % Control Peanut Easly Leafspot.
In the next data set the test system is Monilinia fructicola. As to the kind of experiment: Stone fruit brown rot control on dipped canned peach halves (Example 86). The settings on record: 120 h, 100 ppm dip, percent growth inhibition of colonies after five days. From the text:
Several compounds of the previous examples were again dissolved in acetone in an amount equal to 5% of the final volume and then suspended at a concentration of 100 ppm in purified water containing 700 ppm of the surfactant TREM 014 (polyhydric alcohol esters). Canned peach halves were dipped in this suspension for three minutes and then placed to air dry in sterile containers. Upon drying, the peach halves were inoculated with two pieces of Monilinia fructicola mycelium, causal agent of stone fruit brown rot, and incubated in the sterile containers for five days. At that time the radii of the colonies' growth were measured on each peach. […] Percent disease control (percent growth inhibition of colonies on treated peaches as compared to that of colonies on untreated peaches) is expressed in the table below.

Another data set concerns Pyricularia oryzae. Description: whole plant or invertebrate. It counts as in vivo. The settings on record: Pyricularia oryzae, 168 h, read-out: % Control of Rice Blast, 100 ppm spray, day before inoculation.
The next data set relates to Phytophthora infestans. As to the kind of experiment: whole plant or invertebrate. It counts as in vivo. As to conditions: Phytophthora infestans, in Solanum lycopersicum, 168 h, read-out: % Control of Tomato Late Blight, 100 ppm spray, day before inoculation.
The test system of a further data set is Venturia inaequalis. Description: Apple scab control on sprayed apple seedlings (Example 82). Format: in vivo. The settings on record: Venturia inaequalis, 100 ppm spray, day before inoculation.
The next data set relates to Erysiphe cichoracearum. As to the kind of experiment: Cucumber powdery mildew control on sprayed cucumber seedlings (Example 80). As to conditions: Golovinomyces cichoracearum, 168 h, 100 ppm spray, day before inoculation. Format: in vivo.
A further data set relates to Helminthosporium maydis. As to the kind of experiment: Southern corn leaf blight control on sprayed corn seedlings (Example 83). Format: in vivo. The settings on record: Bipolaris maydis, 192 h, 100 ppm spray, day before inoculation. The method in brief: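 Compounds in 6% acetone at 100 ppm in water with 250 ppm TREM 014 surfactant, sprayed to run-off on corn seedlings; next day inoculated with spore suspension. 24 h at saturated humidity and 20°, then 7 days in growth room before disease rating; phytotoxicity scored as growth reduction.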

Data set [1] has as its system Puccinia recondita var. tritici. As to the kind of experiment: Wheat leaf rust control on sprayed wheat seedlings (Example 79). It counts as in vivo. As to conditions: Puccinia recondita, 168 h; 100 ppm spray, day before inoculation. The method in brief: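 Wheat seedlings were sprayed to run-off with 100 ppm compound suspended in water with 6% acetone and 250 ppm TREM 014 surfactant. Next day they were inoculated with Puccinia recondita var. tritici spores and held 24 h at saturated humidity, 20°. Rust pustules were rated after a further 7 days in a growth room.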

The subject of the next data set is Pythium aphanadermatum. As to the kind of experiment: Pythium control on cotton, seed coating (Example 91). It counts as in vivo. As to conditions: 168 h, 2 gm/kg seed. An excerpt: Several compounds of the previous examples were incorporated into a proprietary formulation and used to coat cotton seeds at a rate of 2 gm/kg seed. After being thoroughly coated, the seeds were allowed to air dry at room temperature. The cotton seeds were then planted into soil amended with the fungus Pythium aphanadermatum, sand, and corn meal at a rate sufficient to kill most untreated seeds. The seeds were held at room temperature for 1 week, after which time disease ratings were made.

The next data set relates to cucumber seedlings. As to the kind of experiment: Phytotoxicity on cucumber seedlings (Example 80). It counts as in vivo. Also on record: key: G = growth reduction; H = hormonal effects. As to conditions: 100 ppm spray. As for the experimental part:
The compounds of the previous example were again dissolved in acetone in an amount equal to 6% of the final volume and then suspended at a concentration of 100 ppm in purified water containing 250 ppm of the surfactant TREM 014 (polyhydric alcohol esters). These suspensions were sprayed to the point of run-off, on cucumber seedlings. The following day, the plants were inoculated with a spore suspension of the fungus Erysiphe cichoracearum, causal agent of cucumber powdery mildew, and incubated in a growth room for 7 days. Disease ratings were then made. Treated plants from successful treatments had little or no powdery mildew in contrast to untreated plants which were covered with powdery mildew. Phytotoxicity in the form of growth reduction or hormonal effects was observed on some of the plants in association with disease control.

Broadly, the inhibition of growth is the share of the control response that was lost under treatment. Turning to `CCCC[Si](C)(Cn1cncn1)c1ccc(-c2ccccc2)cc1` (stereo not drawn) [(1,1'-Biphenyl-4-yl)butyl(methyl)(1H-1,2,4-triazol-1-ylmethyl)silane], the pest or weed control at 100 ppm came to 80% in the data set with Rhizoctonia solani; 100% in the data set on Cercospora arachidicola; 100% in the data set on Pyricularia oryzae; 0% in the data set on Phytophthora infestans; 80% with Venturia inaequalis; 100% in the data set on Erysiphe cichoracearum. In addition, the pest or weed control at 100 ppm is 50% in the data set with Helminthosporium maydis and 90% in [1]. This compound yielded an inhibition of growth at 100 µg/mL in the data set with Monilinia fructicola of 0%.
Turning to `CCCC[Si](C)(CCCC)Cn1cncn1` [Dibutyl(methyl)(1H-1,2,4-triazol-1-ylmethyl)silane], the pest or weed control at 100 ppm in the data set with Rhizoctonia solani was determined as 0%; in the data set on Cercospora arachidicola, 0%; with Pyricularia oryzae, 80%; in the data set on Phytophthora infestans, 0%; in the data set on Venturia inaequalis, 0%; with Erysiphe cichoracearum it was 0%. For the same compound, the pest or weed control at 100 ppm (in the data set on Helminthosporium maydis; in data set [1]) was 0% in each case. For the same compound, in the data set with Monilinia fructicola, at 100 µg/mL the inhibition of growth was 81%.
As for `C[Si](Cn1cncn1)(c1ccc(-c2ccccc2)cc1)c1ccc(-c2ccccc2)cc1` [bis(1,1'-Biphenyl-4-yl)(methyl)(1H-1,2,4-triazol-1-ylmethyl)silane], the pest or weed control at 100 ppm in the data set with Rhizoctonia solani was determined as 90%; in the data set on Cercospora arachidicola, 80%; with Pyricularia oryzae it was 100%; in the data set on Phytophthora infestans, 0%; with Venturia inaequalis, 0%; in the data set on Erysiphe cichoracearum, 100%. For the same compound, the pest or weed control at 100 ppm was determined as 0% with Helminthosporium maydis and 80% in data set [1]. In addition, the pest or weed control at 2 g/kg seed in the data set on Pythium aphanadermatum was found to be 0%.
As to `C[Si](Cn1cncn1)(c1ccc(Cl)cc1Cl)c1ccc(Cl)cc1Cl` [bis(2,4-Dichlorophenyl)(methyl)(1H-1,2,4-triazol-1-ylmethyl)silane], the pest or weed control at 100 ppm in the data set on Rhizoctonia solani is 0%; with Cercospora arachidicola it was 100%; in the data set with Pyricularia oryzae, 0%; in the data set with Phytophthora infestans, 0%; in the data set on Venturia inaequalis it was 100%; in the data set with Erysiphe cichoracearum, 100%. Also, the pest or weed control at 100 ppm in the data set with Helminthosporium maydis was 80%; in data set [1], 100%. Moreover, the Phytotoxicity on cucumber entry in the data set with cucumber seedlings was “G”.
`O[Si](Cn1cncn1)(c1ccc(Cl)cc1)c1ccc(Cl)cc1` [bis(4-Chlorophenyl)hydroxy(1H-1,2,4-triazol-1-ylmethyl)silane]: the pest or weed control at 100 ppm stood at 0% with Rhizoctonia solani; 100% in the data set on Cercospora arachidicola; 0% with Pyricularia oryzae; 0% in the data set on Phytophthora infestans; 100% with Venturia inaequalis; 100% in the data set on Erysiphe cichoracearum. For the same compound, the pest or weed control at 100 ppm (in the data set on Helminthosporium maydis; in data set [1]) was 90% throughout. For the same compound, the Phytotoxicity on cucumber entry in the data set with cucumber seedlings is “H”.
On to `O[Si](Cn1cncn1)(c1ccc(F)cc1)c1ccc(F)cc1` [bis(4-Fluorophenyl)hydroxy(1H-1,2,4-triazol-1-ylmethyl)silane], for which the pest or weed control at 100 ppm in the data set with Rhizoctonia solani was found to be 0%; in the data set with Cercospora arachidicola, 100%; in the data set on Pyricularia oryzae, 0%; with Phytophthora infestans, 0%; with Venturia inaequalis, 100%; with Erysiphe cichoracearum, 100%. The pest or weed control at 100 ppm in the data set on Helminthosporium maydis amounted to 100%; in data set [1], 90%. The Phytotoxicity on cucumber entry in the data set on cucumber seedlings is listed as “H”.
